According to US8802597B2, “Herbicidal pyrimidines” (E I du Pont de Nemours and Company, priority 2003, dated 2014):
Where two headings read alike, the source gives them in different places.

What was measured:
Type in all cases: in vivo
[1] = test system: Surinam grass (Brachiaria decumbens); experiment: Test B pre/postemergence; conditions: Urochloa decumbens; for pest or weed control at 125 g/ha: 125 g ai/ha; for pest or weed control at 500 g/ha: 500 g ai/ha
How it was run: (§1)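 Test chemicals in a non-phytotoxic solvent mixture with surfactant were applied preemergence to planted seeds and postemergence to plants 2 to 18 cm tall (1- to 4-leaf stage). After 13 to 15 days in a greenhouse, injury was visually rated against untreated controls on a 0 to 100 scale.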

[2] = test system: barnyardgrass (Echinochloa crus-galli); experiment: Test B pre/postemergence; conditions: Echinochloa crus-galli; for pest or weed control at 125 g/ha: 125 g ai/ha; for pest or weed control at 500 g/ha: 500 g ai/ha
How it was run: as §1

[3] = test system: cocklebur (Xanthium strumarium); experiment: Test B pre/postemergence; conditions: Xanthium strumarium; for pest or weed control at 125 g/ha: 125 g ai/ha; for pest or weed control at 500 g/ha: 500 g ai/ha
How it was run: as §1

corn (Zea mays) = experiment: Test B pre/postemergence; conditions: Zea mays
How it was run: as §1

[4] = test system: crabgrass (Digitaria sanguinalis); experiment: Test B pre/postemergence; conditions: Digitaria sanguinalis; for pest or weed control at 125 g/ha: 125 g ai/ha; for pest or weed control at 500 g/ha: 500 g ai/ha
How it was run: as §1

[5] = test system: giant foxtail (Setaria faberii); experiment: Test B pre/postemergence; conditions: Setaria faberi; for pest or weed control at 125 g/ha: 125 g ai/ha; for pest or weed control at 500 g/ha: 500 g ai/ha
How it was run: as §1

[6] = test system: lambsquarters (Chenopodium album); experiment: Test B pre/postemergence; conditions: Chenopodium album; for pest or weed control at 125 g/ha: 125 g ai/ha; for pest or weed control at 500 g/ha: 500 g ai/ha
How it was run: as §1

[7] = test system: morningglory (Ipomoea coccinea); experiment: Test B pre/postemergence; conditions: Ipomoea; for pest or weed control at 125 g/ha: 125 g ai/ha; for pest or weed control at 500 g/ha: 500 g ai/ha
How it was run: as §1

[8] = test system: pigweed (Amaranthus retroflexus); experiment: Test B pre/postemergence; conditions: Amaranthus retroflexus; for pest or weed control at 125 g/ha: 125 g ai/ha; for pest or weed control at 500 g/ha: 500 g ai/ha
How it was run: as §1

[9] = test system: velvetleaf (Abutilon theophrasti); experiment: Test B pre/postemergence; conditions: Abutilon theophrasti; for pest or weed control at 125 g/ha: 125 g ai/ha; for pest or weed control at 500 g/ha: 500 g ai/ha
How it was run: as §1

[10] = test system: wheat (Triticum aestivum); experiment: Test B pre/postemergence; conditions: Triticum aestivum; for plant injury at 125 g/ha: 125 g ai/ha; for plant injury at 500 g/ha: 500 g ai/ha
How it was run: as §1

[11] = test system: blackgrass (Alopecurus myosuroides); experiment: Test B postemergence; conditions: Alopecurus myosuroides, post-emergence
How it was run: as §1

wild oat (Avena fatua) = experiment: Test B postemergence; conditions: Avena fatua, post-emergence
How it was run: as §1

[12] = test system: barnyardgrass (Echinochloa crus-galli); experiment: Test B flooded paddy test; conditions: Echinochloa crus-galli, Flood, 1000 g ai/ha; scale 0 (no effect) to 100 (complete control); read-out: Plant response rating, Barnyardgrass
How it was run: (§2)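 Rice, umbrella sedge, duck salad and barnyardgrass grown to 2-leaf stage under flooded paddy conditions and treated with formulated test chemicals. Kept in greenhouse 13–15 days, then visually rated against untreated controls on a 0–100 scale (0 no effect, 100 complete control).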

[13] = test system: duck salad (Heteranthera limosa); experiment: Test B flooded paddy test; conditions: Heteranthera limosa, Flood, 1000 g ai/ha; scale 0 to 100; read-out: Plant response rating, Ducksalad
How it was run: as §2

rice (Oryza sativa) = experiment: Test B flooded paddy test; conditions: Oryza sativa, Flood, 1000 g ai/ha; scale 0 to 100; read-out: Plant response rating, Rice
How it was run: as §2

[14] = test system: umbrella sedge (Cyperus difformis); experiment: Test B flooded paddy test; conditions: Cyperus difformis, Flood, 1000 g ai/ha; scale 0 to 100; read-out: Plant response rating, Sedge, Umbrella
How it was run: as §2

In the case of `Nc1nc(C2CC2)nc(C=O)c1Br` [Compound 26], the pest or weed control at 125 g/ha ([1]; post-emergence, Postemergence, scale 0 to 100 (0 no effect, 100 complete control), read-out: Surinam Grass plant response rating) is reported as 30%, the pest or weed control at 500 g/ha ([1]; post-emergence, Postemergence, scale 0 to 100, read-out: Plant response rating, Surinam Grass) is reported as 60% and the pest or weed control at 125 g/ha ([1]; pre-emergence, Preemergence, scale 0 to 100 (0 no effect, 100 complete control), read-out: Plant response rating, Surinam Grass) is reported as 10%. For the same compound, the pest or weed control at 500 g/ha ([1]; pre-emergence, Preemergence, scale 0 to 100 (0 no effect, 100 complete control), read-out: Surinam Grass plant response rating) was 80%, the pest or weed control at 125 g/ha ([2]; post-emergence, Postemergence, scale 0 to 100 (0 no effect, 100 complete control), read-out: Barnyardgrass plant response rating) was 20% and the pest or weed control at 500 g/ha ([2]; post-emergence, Postemergence, scale 0 to 100, read-out: Plant response rating, Barnyardgrass) was 60%. For the same compound, the pest or weed control at 125 g/ha ([2]; pre-emergence, Preemergence, scale 0 to 100 (0 no effect, 100 complete control), read-out: Plant response rating, Barnyardgrass) was 50%, the pest or weed control at 500 g/ha ([2]; pre-emergence, Preemergence, scale 0 to 100 (0 no effect, 100 complete control), read-out: Barnyardgrass plant response rating) was 90% and the pest or weed control at 125 g/ha ([3]; post-emergence, Postemergence, scale 0 to 100 (0 no effect, 100 complete control), read-out: Cocklebur plant response rating) was 80%. The pest or weed control at 500 g/ha ([3]; post-emergence, Postemergence, scale 0 to 100, read-out: Plant response rating, Cocklebur) was 90%, the pest or weed control at 125 g/ha ([3]; pre-emergence, Preemergence, scale 0 to 100 (0 no effect, 100 complete control), read-out: Plant response rating, Cocklebur) was 80% and the pest or weed control at 500 g/ha ([3]; pre-emergence, Preemergence, scale 0 to 100 (0 no effect, 100 complete control), read-out: Cocklebur plant response rating) was 90%. For the same compound, the plant injury at 125 g/ha (corn (Zea mays); post-emergence, Postemergence, 125 g ai/ha, scale 0 to 100 (0 no effect, 100 complete control), read-out: Corn plant response rating) was 0%, the Corn plant response rating (crop injury, 0 = no effect, 100 = complete kill) at 500 g/ha (corn (Zea mays); post-emergence, Postemergence, 500 g ai/ha, scale 0 to 100) was 20% and the Corn plant response rating (crop injury, 0 = no effect, 100 = complete kill) at 125 g/ha (corn (Zea mays); pre-emergence, Preemergence, 125 g ai/ha, scale 0 to 100 (0 no effect, 100 complete control)) was 30%. For the same compound, the plant injury at 500 g/ha (corn (Zea mays); pre-emergence, Preemergence, 500 g ai/ha, scale 0 to 100 (0 no effect, 100 complete control), read-out: Corn plant response rating) was 80%, the pest or weed control at 125 g/ha ([4]; post-emergence, Postemergence, scale 0 to 100 (0 no effect, 100 complete control), read-out: Crabgrass plant response rating) was 40% and the pest or weed control at 500 g/ha ([4]; post-emergence, Postemergence, scale 0 to 100, read-out: Plant response rating, Crabgrass) was 70%. For the same compound, the pest or weed control at 125 g/ha ([4]; pre-emergence, Preemergence, scale 0 to 100 (0 no effect, 100 complete control), read-out: Plant response rating, Crabgrass) was 30%, the pest or weed control at 500 g/ha ([4]; pre-emergence, Preemergence, scale 0 to 100 (0 no effect, 100 complete control), read-out: Crabgrass plant response rating) was 90% and the pest or weed control at 125 g/ha ([5]; post-emergence, Postemergence, scale 0 to 100 (0 no effect, 100 complete control), read-out: Foxtail, Giant plant response rating) was 30%. The pest or weed control at 500 g/ha ([5]; post-emergence, Postemergence, scale 0 to 100, read-out: Plant response rating, Foxtail, Giant) was 40%, the pest or weed control at 125 g/ha ([5]; pre-emergence, Preemergence, scale 0 to 100 (0 no effect, 100 complete control), read-out: Plant response rating, Foxtail, Giant) was 10% and the pest or weed control at 500 g/ha ([5]; pre-emergence, Preemergence, scale 0 to 100 (0 no effect, 100 complete control), read-out: Foxtail, Giant plant response rating) was 80%. It also gave a pest or weed control at 125 g/ha ([6]; post-emergence, Postemergence, scale 0 to 100 (0 no effect, 100 complete control), read-out: Lambsquarters plant response rating) of 70%, a pest or weed control at 500 g/ha ([6]; post-emergence, Postemergence, scale 0 to 100, read-out: Plant response rating, Lambsquarters) of 80% and a pest or weed control at 125 g/ha ([6]; pre-emergence, Preemergence, scale 0 to 100 (0 no effect, 100 complete control), read-out: Plant response rating, Lambsquarters) of 100%. The pest or weed control at 500 g/ha ([6]; pre-emergence, Preemergence, scale 0 to 100 (0 no effect, 100 complete control), read-out: Lambsquarters plant response rating) was 100%, the pest or weed control at 125 g/ha ([7]; post-emergence, Postemergence, scale 0 to 100 (0 no effect, 100 complete control), read-out: Morningglory plant response rating) was 70% and the pest or weed control at 500 g/ha ([7]; post-emergence, Postemergence, scale 0 to 100, read-out: Plant response rating, Morningglory) was 80%. It also gave a pest or weed control at 125 g/ha ([7]; pre-emergence, Preemergence, scale 0 to 100 (0 no effect, 100 complete control), read-out: Plant response rating, Morningglory) of 90%, a pest or weed control at 500 g/ha ([7]; pre-emergence, Preemergence, scale 0 to 100 (0 no effect, 100 complete control), read-out: Morningglory plant response rating) of 100% and a pest or weed control at 125 g/ha ([8]; post-emergence, Postemergence, scale 0 to 100 (0 no effect, 100 complete control), read-out: Pigweed plant response rating) of 70%. It also gave a pest or weed control at 500 g/ha ([8]; post-emergence, Postemergence, scale 0 to 100, read-out: Plant response rating, Pigweed) of 80%, a pest or weed control at 125 g/ha ([8]; pre-emergence, Preemergence, scale 0 to 100 (0 no effect, 100 complete control), read-out: Plant response rating, Pigweed) of 90% and a pest or weed control at 500 g/ha ([8]; pre-emergence, Preemergence, scale 0 to 100 (0 no effect, 100 complete control), read-out: Pigweed plant response rating) of 100%. The pest or weed control at 125 g/ha ([9]; post-emergence, Postemergence, scale 0 to 100 (0 no effect, 100 complete control), read-out: Velvetleaf plant response rating) was 40%, the pest or weed control at 500 g/ha ([9]; post-emergence, Postemergence, scale 0 to 100, read-out: Plant response rating, Velvetleaf) was 70% and the pest or weed control at 125 g/ha ([9]; pre-emergence, Preemergence, scale 0 to 100 (0 no effect, 100 complete control), read-out: Plant response rating, Velvetleaf) was 90%. For the same compound, the pest or weed control at 500 g/ha ([9]; pre-emergence, Preemergence, scale 0 to 100 (0 no effect, 100 complete control), read-out: Velvetleaf plant response rating) was 100%, the plant injury at 125 g/ha ([10]; post-emergence, Postemergence, scale 0 to 100 (0 no effect, 100 complete control), read-out: Wheat plant response rating) was 30% and the plant injury at 500 g/ha ([10]; post-emergence, Postemergence, scale 0 to 100, read-out: Plant response rating, Wheat) was 30%. The plant injury at 125 g/ha ([10]; pre-emergence, Preemergence, scale 0 to 100 (0 no effect, 100 complete control), read-out: Plant response rating, Wheat) was 30%, the plant injury at 500 g/ha ([10]; pre-emergence, Preemergence, scale 0 to 100 (0 no effect, 100 complete control), read-out: Wheat plant response rating) was 60% and the pest or weed control at 125 g/ha ([11]; 125 g ai/ha, scale 0 to 100 (0 no effect, 100 complete control), read-out: Blackgrass plant response rating) was 40%. It also gave a pest or weed control at 500 g/ha ([11]; 500 g ai/ha, scale 0 to 100, read-out: Plant response rating, Blackgrass) of 70%, a pest or weed control at 125 g/ha (wild oat (Avena fatua); 125 g ai/ha, scale 0 to 100 (0 no effect, 100 complete control), read-out: Oat, Wild plant response rating) of 30% and a pest or weed control at 500 g/ha (wild oat (Avena fatua); 500 g ai/ha, scale 0 to 100, read-out: Plant response rating, Oat, Wild) of 40%. The pest or weed control at 1000 g/ha [12] was 60%, the pest or weed control at 1000 g/ha [13] was 90% and the plant injury at 1000 g/ha (rice (Oryza sativa)) was 70%. For the same compound, the pest or weed control at 1000 g/ha [14] was 80%.
